Source: patent US8163479B2, “Specific substrates for O6-alkylguanine-DNA alkyltransferase” (Ecole Polytechnique Federale de Lausanne, priority 2004, dated 2012)
Residue numbers refer to the chain shown, from its start.

Experiments:
AGTM or AGT21 = assay: One-pot labeling and separation with streptavidin magnetic beads; type: biochemical, human; conditions: 5 μM protein, 10 μM substrate, 1 hour; fluorescence 490/535 nm in supernatant
Method: In other experiments, purified AGTM or AGT21 (Example 47) in a protein concentration of 5 μM are incubated with 10 μM N-[4-(2-amino-8-(3-(N-(+)-biotinyl-6-aminocaproyl)-aminopropyl)-9H-purin-6-yloxymethyl)-benzyl]-fluoresceine-5(6)-carboxamide (52, Example 34) in 50 μl buffer containing 100 mM NaCl, 50 mM Tris, pH 8.0, 0.1% Tween, 1 mM DTT at room temperature. After 1 hour, streptavidin coated magnetic beads (Magnabind Streptavidin, Pierce) with a capacity to bind at least 1 nmol biotin are added and the incubation time and magnetic separation from the supernatant containing fluorescein-labeled protein are done according to manufacturer's instructions for use. The amount of protein in solution before and after the treatment with magnetic beads is determined by Bradford assay. The loss of protein is less than 30%. The labeling efficiency is determined by measuring the fluorescence intensity using a Victor2 microplate reader (Perkin Elmer) at 490 nm excitation and 535 nm emission in the supernatant after removal of the unreacted substrate and released product by binding to the beads and magnetic separation. The labeling efficiency is at least 20%.

AGTM = target: T1, AGTM (Homo sapiens, UniProt P16455, A127T/C150N/C62A/G131K/G132T/K125A/M134L/N157G/Q115S/Q116H/R128A/R135S/S151I/S152N/S159E); assay: Labeling with substrate pre-immobilized on streptavidin magnetic beads; type: biochemical; conditions: AGTM 50 μM, 20 h
T1 construct: a truncation after codon 182 into the mutant AGT gene
T1 sequence (P16455 1-182 C62A/Q115S/Q116H/K125A/A127T/R128A/G131K/G132T/M134L/R135S/C150N/S151I/S152N/N157G/S159E): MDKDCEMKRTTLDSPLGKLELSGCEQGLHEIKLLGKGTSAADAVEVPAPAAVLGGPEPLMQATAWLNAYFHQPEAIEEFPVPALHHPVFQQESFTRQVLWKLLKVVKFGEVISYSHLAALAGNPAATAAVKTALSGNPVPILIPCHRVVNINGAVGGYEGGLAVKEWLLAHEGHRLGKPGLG
Method: In a further experiment, wherein the substrate is pre-immobilized, streptavidin coated magnetic beads (Magnabind Streptavidin, Pierce) with a capacity to bind […] biotin per ml are incubated with twofold excess of compound 52 (as above) in buffer containing 100 mM NaCl, 50 mM Tris, pH 8.0, 0.1% Tween at room temperature to immobilize the substrate to the beads. The incubation time and magnetic separation from the supernatant are done according to manufacturer's instructions for use. Unbound substrate is removed with buffer by 3 subsequent washing steps. AGTM at a protein concentration of 50 μM is incubated with these substrate-modified beads in 50 μl buffer containing 100 mM NaCl, 50 mM Tris, pH 8.0, 0.1% Tween, 1 mM DTT at room temperature. After 20 h, the beads are separated from the supernatant containing fluorescein-labeled protein. The amount of protein in solution before and after the treatment with magnetic beads is determined by Bradford assay.

AGTM (mutant AGT) = target: T2, AGTM (mutant AGT) (Homo sapiens, UniProt P16455, A127T/C150N/C62A/G131K/G132T/K125A/M134L/N157G/Q115S/Q116H/R128A/R135S/S151I/S152N/S159E); assay: Reaction rate of AGT mutant with substrate, BGBT capture and Western blot; type: biochemical
T2 construct: a truncation after codon 182 into the mutant AGT gene; 6xHis
T2 sequence (P16455 1-182 C62A/Q115S/Q116H/K125A/A127T/R128A/G131K/G132T/M134L/R135S/C150N/S151I/S152N/N157G/S159E): T1 sequence (P16455 1-182 C62A/Q115S/Q116H/K125A/A127T/R128A/G131K/G132T/M134L/R135S/C150N/S151I/S152N/N157G/S159E)
From the text: Proteins are then denatured with SDS and heat. Samples are subjected to SDS-PAGE and Western blot analysis. The intensity of the corresponding bands is detected by chemiluminescence stain.
A second AGT mutant (“AGTM”) containing the mutations Cys62Ala, Gln115Ser, Gln116His, Lys125Ala, Ala127Thr, Arg128Ala, Gly131Lys, Gly132Thr, Met134Leu, Arg135Ser, Cys150Asn, Ser15111e, Ser152Asn, Asn157Gly, Ser159G1u, and truncation at 182 is derived from the mentioned above AGT mutant by subsequent introduction of further mutations and a truncation after codon 182 into the mutant AGT gene. […] The GST-fusion protein is expressed and purified as well.
AGTM (1 μM final concentration) is incubated with N^9-cyclopentyl-O^6-(4-bromothiophen-2-yl)-guanine (18, CPTG) (10 μM in 1% DMSO final concentration) in reaction buffer (50 mM HEPES, 1 mM DTT, […] BSA, pH 7.3) at 24° C. […] The reaction is quenched by addition of SDS-Laemmli buffer and heating for 2 min at 95° C. Samples are run on a 12% acrylamide gel and analysed by Western blotting.

[1] = target: T3, AGT (Gly160Trp)-NLS3 fusion protein in the nucleus of CHO cells (Homo sapiens, UniProt P16455, G160W); assay: Intracellular competition of two AGT mutants with two substrates in CHO cells; type: cell-based; conditions: 5 μM CPTG 10 min, then 5 μM BG-AcFL 20 min
T3 construct: expressed in transfected cells; host or cells: CHO cells, transient expression
T3 sequence (P16455 1-207 G160W): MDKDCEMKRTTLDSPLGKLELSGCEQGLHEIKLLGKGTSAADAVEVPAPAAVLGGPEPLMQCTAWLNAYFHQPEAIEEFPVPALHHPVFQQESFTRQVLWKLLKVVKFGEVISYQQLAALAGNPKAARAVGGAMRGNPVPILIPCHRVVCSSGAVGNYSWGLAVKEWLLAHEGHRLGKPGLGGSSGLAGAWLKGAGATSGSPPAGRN
From the text: (§1) The mutant AGTM (Example 47) is amplified with the suitable primers and cloned between the NheI and BglII sites of the vector pEGFP-Nuc. The yeast β-galactosidase gene is likewise amplified and subcloned into this vector via BglII/BamHI to result in a vector with an AGT-β-Gal fusion gene. The wild type hAGT gene is amplified and cloned via NheI/BglII into pEGFP-Nuc to result in an AGT-NLS3 fusion gene coding for the mutation Gly160Trp.

[2] = target: T4, AGTM-β-galactosidase fusion protein in CHO cells (Homo sapiens, UniProt P16455, A127T/C150N/C62A/G131K/G132T/K125A/M134L/N157G/Q115S/Q116H/R128A/R135S/S151I/S152N/S159E); assay: as above; type: cell-based; conditions: 5 μM CPTG 10 min, then 5 μM BG-AcFL 20 min
T4 construct: a truncation after codon 182 into the mutant AGT gene; expressed in transfected cells; host or cells: CHO cells, transient expression
T4 sequence (P16455 1-182 C62A/Q115S/Q116H/K125A/A127T/R128A/G131K/G132T/M134L/R135S/C150N/S151I/S152N/N157G/S159E): T1 sequence (P16455 1-182 C62A/Q115S/Q116H/K125A/A127T/R128A/G131K/G132T/M134L/R135S/C150N/S151I/S152N/N157G/S159E)
From the text: as §1

Mutant AGT (AGTM) = target: T5, Mutant AGT (AGTM) (Homo sapiens, UniProt P16455, A127T/C150N/C62A/G131K/G132T/K125A/M134L/N157G/Q115S/Q116H/R128A/R135S/S151I/S152N/S159E); assay: In vitro competition between CPTG and BGBT, separate incubation; type: biochemical; conditions: CPTG 20 times higher than BGBT (0.5 μM), after 45 minutes
T5 construct: a truncation after codon 182 into the mutant AGT gene
T5 sequence (P16455 1-182 C62A/Q115S/Q116H/K125A/A127T/R128A/G131K/G132T/M134L/R135S/C150N/S151I/S152N/N157G/S159E): T1 sequence (P16455 1-182 C62A/Q115S/Q116H/K125A/A127T/R128A/G131K/G132T/M134L/R135S/C150N/S151I/S152N/N157G/S159E)
Method: (§2) The reaction is quenched by addition of 2×SDS buffer and placed 2 min at 95° C. Samples are run on a 12% acrylamide gel and analysed by Western blotting.

wild type hAGT = target: T6, wild type hAGT (Homo sapiens, UniProt P16455); assay: as above; type: biochemical; conditions: CPTG 20 times higher than BGBT (0.5 μM), after 45 minutes
T6 sequence (P16455 1-207): T3 sequence (P16455 1-207 G160W) with W160G
Method: as §2

[3] = target: T7, AGTM-6×His fusion protein (Homo sapiens, UniProt P16455, A127T/C150N/C62A/G131K/G132T/K125A/M134L/N157G/Q115S/Q116H/R128A/R135S/S151I/S152N/S159E); assay: In vitro competition CPTG/BGBT, both proteins in one solution; type: biochemical; conditions: both substrates CPTG and BGBT 5 μM, 30 min
T7 construct: a truncation after codon 182 into the mutant AGT gene; 6xHis
T7 sequence (P16455 1-182 C62A/Q115S/Q116H/K125A/A127T/R128A/G131K/G132T/M134L/R135S/C150N/S151I/S152N/N157G/S159E): T1 sequence (P16455 1-182 C62A/Q115S/Q116H/K125A/A127T/R128A/G131K/G132T/M134L/R135S/C150N/S151I/S152N/N157G/S159E)
Method: (§3) Detection of the AGTM-BGBT complex with luminescent peroxidase substrate is as described for FIG. 2.
as §2
(§4) In comparing the reaction of AGTM and wild type hAGT, a high specificity of CPTG toward hAGT is observed. At the same concentration (both substrates 5 μM final concentration), 95% of wild type AGT has reacted with CPTG versus only 5% of AGTM.

[4] = target: T8, wild type hAGT-GST fusion protein (Homo sapiens, UniProt P16455); assay: as above; type: biochemical; conditions: both substrates CPTG and BGBT 5 μM, 30 min
T8 sequence (P16455 1-207): T3 sequence (P16455 1-207 G160W) with W160G
Method: as §3, §2, §4

Substance | labeling efficiency (AGTM or AGT21) | labeling efficiency (AGTM) | loss of protein (AGTM; Bradford assay) | activity ratio of the two substrates BGBT/CPTG (AGTM (mutant AGT); AGTM) | second order rate constant k2 (AGTM (mutant AGT); AGTM 1 μM, substrate 10 μM, 24° C., pH 7.3) | reaction with CPTG inside cells [1] | reaction with CPTG inside cells [2] | mutant AGTM still active (Mutant AGT (AGTM)) | wild type AGT quenched by CPTG (wild type hAGT) | AGTM reacted with CPTG [3] | wild type AGT reacted with CPTG [4]
N-[4-(2-Amino-8-(3-(N-(+)-biotinyl-6-aminocaproyl)-aminopropyl)-9H-purin-6-yloxymethyl)-benzyl]-fluoresceine-5(6)-carboxamide [compound 52] | at least 20% | at least 20% | less than 30% |  |  |  |  |  |  |  | 
N^9-Cyclopentyl-O^6-(4-bromothiophen-2-yl)-guanine [CPTG] |  |  |  | at least 25 | 92.5 M⁻¹ s⁻¹ | efficiently reacts with CPTG | does not react with CPTG | 87% | 95% | 5% | 95%
